target: T1, human cardiac ion channel proteins hKir3.1/Kir3.4 (Homo sapiens, UniProt P48544+P48549); experiment: Atomic Absorption Screening (AAS) Rb efflux assay of hKir3.1/Kir3.4 block, carbachol/high K+ stimulated, 10-pt or 7-pt CR; type: cell-based; details: 7-pt CR (0.037 to 27 μmol/L), AAS Rb efflux, CHO-K1 cells expressing hKir3.1/Kir3.4; mean of >3 replicates; read-out: IKACh IC50 7-pt CR, AAS
T1 construct: expressed in transfected cells
T1 sequence (P48549 1-501): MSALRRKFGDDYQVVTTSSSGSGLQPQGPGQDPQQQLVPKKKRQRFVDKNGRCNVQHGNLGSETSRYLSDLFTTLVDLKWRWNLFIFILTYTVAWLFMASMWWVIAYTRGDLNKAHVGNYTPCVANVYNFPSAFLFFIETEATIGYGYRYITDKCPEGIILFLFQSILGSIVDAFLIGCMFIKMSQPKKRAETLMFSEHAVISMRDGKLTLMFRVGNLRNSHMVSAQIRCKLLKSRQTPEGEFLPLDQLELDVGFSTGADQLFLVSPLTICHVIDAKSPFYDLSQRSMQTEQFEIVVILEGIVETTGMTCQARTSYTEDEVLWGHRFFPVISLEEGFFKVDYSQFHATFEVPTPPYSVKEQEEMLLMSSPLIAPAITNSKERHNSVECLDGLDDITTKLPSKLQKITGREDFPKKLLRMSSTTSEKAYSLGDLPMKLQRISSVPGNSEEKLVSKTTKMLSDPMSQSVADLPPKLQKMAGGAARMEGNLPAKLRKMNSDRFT
T1 sequence (P48544 1-419): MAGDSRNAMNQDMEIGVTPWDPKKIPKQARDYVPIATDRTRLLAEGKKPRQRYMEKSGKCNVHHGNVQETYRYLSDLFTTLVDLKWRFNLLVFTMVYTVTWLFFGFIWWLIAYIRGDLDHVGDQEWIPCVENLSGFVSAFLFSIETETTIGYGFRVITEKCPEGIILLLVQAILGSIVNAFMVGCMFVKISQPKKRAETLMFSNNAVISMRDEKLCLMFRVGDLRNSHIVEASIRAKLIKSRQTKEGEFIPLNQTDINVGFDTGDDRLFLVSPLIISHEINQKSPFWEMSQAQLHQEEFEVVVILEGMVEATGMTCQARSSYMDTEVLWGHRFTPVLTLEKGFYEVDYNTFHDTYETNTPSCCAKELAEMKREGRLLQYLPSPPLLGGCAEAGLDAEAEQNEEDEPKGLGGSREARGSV
Summary of the method: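 Mean IC50s derive from >4 replicates over 0.003–67 μmol/L (10-point) or >3 replicates over 0.037–27 μmol/L (7-point), both threefold steps. Rb-loaded (3 h, 37° C) CHO-K1 cells stably expressing hKir3.1/Kir3.4 saw compound for 5 min at RT before 10-min channel opening by carbachol 10 μM/KCl 20 mM final. Released Rb was quantified by atomic absorption.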

Compound	IC50 [µM]
CC(C)[C@@H](CN1CC[C@H](O)C1)N(C)C(=O)c1ccc(OC(F)(F)F)cc1 [Example 16.41, N-[(1S)-1-{[(3S)-3-Hydroxypyrrolidin-1-yl]methyl}-2-methylpropyl]-N-methyl-4-(trifluoromethoxy)benzamide]	6.8
CC(C)[C@@H](CN1CC[C@H](O)C1)N(C)C(=O)c1cccc(OC(F)(F)F)c1 [Example 16.42, N-[(1S)-1-{[(3S)-3-Hydroxypyrrolidin-1-yl]methyl}-2-methylpropyl]-N-methyl-3-(tri-fluoromethoxy)benzamide]	3.9
Cc1ccc(C(=O)N(C)[C@H](CN2CC[C@H](O)C2)C(C)C)cc1 [Example 16.43, N-[(1S)-1-{[(3S)-3-Hydroxypyrrolidin-1-yl]methyl}-2-methylpropyl]-N,4-dimethylbenzamide]	5.5
CC(C)[C@@H](CN1CC[C@H](O)C1)N(C)C(=O)c1cc(F)cc(C(F)(F)F)c1 [Example 16.44, 3-Fluoro-N-[(1S)-1-{[(3S)-3-hydroxypyrrolidin-1-yl]methyl}-2-methylpropyl]-N-methyl-5-(trifluoromethyl)benzamide]	8.4
Cc1c(F)cccc1C(=O)N(C)[C@H](CN1CC[C@H](O)C1)C(C)C [Example 16.45, 3-Fluoro-N—((S)-1-((S)-3-hydroxypyrrolidin-1-yl)-3-methylbutan-2-yl)-N,2-dimethylbenzamide]	16
CC(C)[C@@H](CN1CC[C@H](O)C1)N(C)C(=O)c1ccc(F)cc1C(F)(F)F [Example 16.46, 4-Fluoro-N—((S)-1-((S)-3-hydroxypyrrolidin-1-yl)-3-methylbutan-2-yl)-N-methyl-2-(trifluoromethyl)benzamide]	19
CC(C)[C@@H](CN1CCCC1)N(C)C(=O)c1ccc(Cl)cc1Cl [Example 16.47, (S)-2,4-Dichloro-N-methyl-N-(3-methyl-1-(pyrrolidin-1-yl)butan-2-yl)benzamide]	0.56
CC(C)[C@@H](CN1CCCC1)N(C)C(=O)c1cccc(Cl)c1 [Example 16.48, (S)-3-Chloro-N-methyl-N-(3-methyl-1-(pyrrolidin-1-yl)butan-2-yl)benzamide]	4.2
CC(C)c1ccc(C(=O)N(C)[C@H](CN2CCCC2)C(C)C)cc1 [Example 16.49, (S)-4-Isopropyl-N-methyl-N-(3-methyl-1-(pyrrolidin-1-yl)butan-2-yl)benzamide]	7.1
Cc1cc(C(=O)N(C)[C@H](CN2CCCC2)C(C)C)ccc1Cl [Example 16.50, (S)-4-Chloro-N,3-dimethyl-N-(3-methyl-1-(pyrrolidin-1-yl)butan-2-yl)benzamide]	0.42
CC(C)[C@@H](CN1CCCC1)N(C)C(=O)c1ccc(Cl)c(Cl)c1 [Example 16.51, (S)-3,4-Dichloro-N-methyl-N-(3-methyl-1-(pyrrolidin-1-yl)butan-2-yl)benzamide]	0.46
CC(C)[C@@H](CN1CCCC1)N(C)C(=O)c1ccc(Br)c(F)c1 [Example 16.52, (S)-4-Bromo-3-fluoro-N-methyl-N-(3-methyl-1-(pyrrolidin-1-yl)butan-2-yl)benzamide]	3.2
CC(C)[C@@H](CN1CCCC1)N(C)C(=O)c1ccc(Cl)cc1F [Example 16.53, (S)-4-Chloro-2-fluoro-N-methyl-N-(3-methyl-1-(pyrrolidin-1-yl)butan-2-yl)benzamide]	0.9
CC(C)[C@@H](CN1CCCC1)N(C)C(=O)c1ccccc1OC(F)F [Example 16.54, (S)-2-(Difluoromethoxy)-N-methyl-N-(3-methyl-1-(pyrrolidin-1-yl)butan-2-yl)benzamide]	6
CC(C)[C@H](CN1CCCC1)N(C)C(=O)c1ccc(Cl)c(Cl)c1 [Example 16.56, (R)-3,4-Dichloro-N-methyl-N-(3-methyl-1-(pyrrolidin-1-yl)butan-2-yl)benzamide]	3.6
CC(C)[C@H](CN1CCCC1)N(C)C(=O)c1ccc(Br)cc1 [Example 16.57, (R)-4-Bromo-N-methyl-N-(3-methyl-1-(pyrrolidin-1-yl)butan-2-yl)benzamide]	11
CC(C)[C@H](CN1CCCC1)N(C)C(=O)c1ccc(Cl)cc1Cl [Example 16.58, (R)-2,4-Dichloro-N-methyl-N-(3-methyl-1-(pyrrolidin-1-yl)butan-2-yl)benzamide]	5.8
CC(C)[C@H](CN1CCCC1)N(C)C(=O)c1ccc(Cl)cc1F [Example 16.59, (R)-4-Chloro-2-fluoro-N-methyl-N-(3-methyl-1-(pyrrolidin-1-yl)butan-2-yl)benzamide]	18
CC(C)[C@H](CN1CCCC1)N(C)C(=O)c1ccc(Br)c(F)c1 [Example 16.60, (R)-4-Bromo-3-fluoro-N-methyl-N-(3-methyl-1-(pyrrolidin-1-yl)butan-2-yl)benzamide]	16

same assay, conditions: 10-pt CR (0.003 to 67 μmol/L), AAS Rb efflux, CHO-K1 cells expressing hKir3.1/Kir3.4; mean of >4 replicates; read-out: IKACh IC50 10-pt CR, AAS

Compound	IC50 [µM]
CC(C)c1ccc(C(=O)N(C)[C@H](CN2CCCC2)C(C)C)cc1 [Example 16.49, (S)-4-Isopropyl-N-methyl-N-(3-methyl-1-(pyrrolidin-1-yl)butan-2-yl)benzamide]	9.7
CC(C)[C@@H](CN1CCCC1)N(C)C(=O)c1ccccc1OC(F)F [Example 16.54, (S)-2-(Difluoromethoxy)-N-methyl-N-(3-methyl-1-(pyrrolidin-1-yl)butan-2-yl)benzamide]	9.1
CC(C)[C@H](CN1CCCC1)N(C)C(=O)c1ccc(Br)cc1 [Example 16.57, (R)-4-Bromo-N-methyl-N-(3-methyl-1-(pyrrolidin-1-yl)butan-2-yl)benzamide]	8.8
CC[C@@H](CN1CCCC1)N(C)C(=O)c1ccc(Br)cc1 [Example 17.1, (S)-4-Bromo-N-methyl-N-(1-(pyrrolidin-1-yl)butan-2-yl)benzamide]	12
CC[C@@H](CN1CCCC1)N(C)C(=O)c1ccc(Cl)c(Cl)c1 [Example 17.2, (S)-3,4-Dichloro-N-methyl-N-(1-(pyrrolidin-1-yl)butan-2-yl)benzamide]	1.4
Cc1cc(C(=O)N(C)[C@H](CN2CC[C@@H](O)C2)C(C)C)ccc1F [Example 17.3, 4-Fluoro-N—((S)-1-((R)-3-hydroxypyrrolidin-1-yl)-3-methylbutan-2-yl)-N,3-dimethylbenzamide]	11
CC(C)[C@@H](CN1CC[C@@H](O)C1)N(C)C(=O)c1ccc(Cl)cc1 [Example 17.4, 4-Chloro-N—((S)-1-((R)-3-hydroxypyrrolidin-1-yl)-3-methylbutan-2-yl)-N-methylbenzamide]	17
CC(C)[C@@H](CN1CC[C@@H](O)C1)N(C)C(=O)c1ccc(Br)cc1 [Example 17.5, 4-Bromo-N—((S)-1-((R)-3-hydroxypyrrolidin-1-yl)-3-methylbutan-2-yl)-N-methylbenzamide]	2.7
CC(C)[C@@H](CN1CC[C@@H](O)C1)N(C)C(=O)c1ccc(F)c(Cl)c1 [Example 17.6, 3-Chloro-4-fluoro-N—((S)-1-((R)-3-hydroxypyrrolidin-1-yl)-3-methylbutan-2-yl)-N-methylbenzamide]	12
CC(C)[C@@H](CN1CC[C@@H](O)C1)N(C)C(=O)c1ccc(F)c(C(F)(F)F)c1 [Example 17.7, 4-Fluoro-N—((S)-1-((R)-3-hydroxypyrrolidin-1-yl)-3-methylbutan-2-yl)-N-methyl-3-(trifluoromethyl)benzamide]	3.6
CC(C)[C@@H](CN1CCCC1)N(C(=O)c1ccc(Cl)cc1)C1CCCC1 [Example 20, (S)-4-Chloro-N-cyclopentyl-N-(3-methyl-1-(pyrrolidin-1-yl)butan-2-yl)benzamide]	11
Cc1ccc(C(=O)N(C)[C@H](CN2CCC(F)(F)C2)C(C)C)cc1C [Example 21, (S)—N-(1-(3,3-Difluoropyrrolidin-1-yl)-3-methylbutan-2-yl)-N,3,4-trimethylbenzamide]	19
Cc1cc(C(=O)N(C)[C@](C)(CN2CC(O)C2)C(C)C)ccc1F [Example 22, (S)-4-Fluoro-N-(1-(3-hydroxyazetidin-1-yl)-2,3-dimethylbutan-2-yl)-N,3-dimethylbenzamide]	19
CCC[C@@H](CN1CC(O)C1)N(C)C(=O)c1ccc(C)c(C)c1 [Example 23, (S)—N-(1-(3-Hydroxyazetidin-1-yl)pentan-2-yl)-N,3,4-trimethylbenzamide]	0.44
Cc1cc(C(=O)N(C)[C@H](CN2CCC(O)CC2)C(C)C)ccc1F [Example 24, (S)-4-Fluoro-N-(1-(4-hydroxypiperidin-1-yl)-3-methylbutan-2-yl)-N,3-dimethylbenzamide]	4
Cc1cc(C(=O)N(C)[C@@H](CN2CCC(O)CC2)C(C)C)ccc1F [Example 25, (R)-4-Fluoro-N-(1-(4-hydroxypiperidin-1-yl)-3-methylbutan-2-yl)-N,3-dimethylbenzamide]	17
Cc1cc(C(=O)N(C)[C@H](CN2CCC(C#N)CC2)C(C)C)ccc1F [Example 26, (S)—N-(1-(4-Cyanopiperidin-1-yl)-3-methylbutan-2-yl)-4-fluoro-N,3-dimethylbenzamide]	7

Reference: US8361998B2, “Compounds and their use as IKACh blockers” (AstraZeneca AB, priority 2010, dated 2013)
